Experimental data taken from PubChem BioAssay (NCI).
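Each compound was tested at five concentrations against cells in 96-well plates for 48 hours. TGI denotes the concentration required for complete inhibition of growth.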

Experiments:
Assay in all cases: NCI anticancer screen, dose series, 48 h
786-0 renal = tested on: 786-0 renal
A498 renal = tested on: A498 renal
A549 NSCLC = tested on: A549 NSCLC
ACHN renal = tested on: ACHN renal
CAKI-1 renal = tested on: CAKI-1 renal
CCRF-CEM leukemia = tested on: CCRF-CEM leukemia
COLO 205 colon = tested on: COLO 205 colon
DLD-1 colon = tested on: DLD-1 colon
DMS 114 small cell lung = tested on: DMS 114 small cell lung
DMS 273 small cell lung = tested on: DMS 273 small cell lung
EKVX NSCLC = tested on: EKVX NSCLC
HCC-2998 colon = tested on: HCC-2998 colon
HCT-116 colon = tested on: HCT-116 colon
HCT-15 colon = tested on: HCT-15 colon
HL-60(TB) leukemia = tested on: HL-60(TB) leukemia
HOP-18 NSCLC = tested on: HOP-18 NSCLC
HOP-62 NSCLC = tested on: HOP-62 NSCLC
HOP-92 NSCLC = tested on: HOP-92 NSCLC
HT29 colon = tested on: HT29 colon
IGROV1 ovarian = tested on: IGROV1 ovarian
K-562 leukemia = tested on: K-562 leukemia
KM12 colon = tested on: KM12 colon
KM20L2 colon = tested on: KM20L2 colon
LOX IMVI melanoma = tested on: LOX IMVI melanoma
LXFL 529 NSCLC = tested on: LXFL 529 NSCLC
M14 melanoma = tested on: M14 melanoma
MALME-3M melanoma = tested on: MALME-3M melanoma
NCI-H226 lung = tested on: NCI-H226 lung
NCI-H23 lung = tested on: NCI-H23 lung
NCI-H460 lung = tested on: NCI-H460 lung
NCI-H522 lung = tested on: NCI-H522 lung
OVCAR-3 ovarian = tested on: OVCAR-3 ovarian
OVCAR-4 ovarian = tested on: OVCAR-4 ovarian
OVCAR-5 ovarian = tested on: OVCAR-5 ovarian
OVCAR-8 ovarian = tested on: OVCAR-8 ovarian
RPMI-8226 leukemia = tested on: RPMI-8226 leukemia
RXF 393 renal = tested on: RXF 393 renal
RXF-631 renal = tested on: RXF-631 renal
SF-268 CNS = tested on: SF-268 CNS
SF-295 CNS = tested on: SF-295 CNS
SF-539 CNS = tested on: SF-539 CNS
SK-MEL-2 melanoma = tested on: SK-MEL-2 melanoma
SK-MEL-28 melanoma = tested on: SK-MEL-28 melanoma
SK-MEL-5 melanoma = tested on: SK-MEL-5 melanoma
SK-OV-3 ovarian = tested on: SK-OV-3 ovarian
SN12C renal = tested on: SN12C renal
SNB-19 CNS = tested on: SNB-19 CNS
SNB-75 CNS = tested on: SNB-75 CNS
SNB-78 CNS = tested on: SNB-78 CNS
SW-620 colon = tested on: SW-620 colon
TK-10 renal = tested on: TK-10 renal
U251 CNS = tested on: U251 CNS
UACC-257 melanoma = tested on: UACC-257 melanoma
UACC-62 melanoma = tested on: UACC-62 melanoma
UO-31 renal = tested on: UO-31 renal
XF 498 CNS = tested on: XF 498 CNS
BT-549 breast = tested on: BT-549 breast
DU-145 prostate = tested on: DU-145 prostate
HS 578T breast = tested on: HS 578T breast
M19-MEL melanoma = tested on: M19-MEL melanoma
MCF7 breast = tested on: MCF7 breast
MDA-MB-231 breast = tested on: MDA-MB-231 breast
MDA-MB-435 = tested on: MDA-MB-435
MDA-N = tested on: MDA-N
MOLT-4 leukemia = tested on: MOLT-4 leukemia
NCI/ADR-RES ovarian = tested on: NCI/ADR-RES ovarian
PC-3 prostate = tested on: PC-3 prostate
SR leukemia = tested on: SR leukemia
T-47D breast = tested on: T-47D breast

Measured: TGI

COc1ccccc1CC(C)N (stereo not drawn)
not listed: BT-549 breast | DU-145 prostate | HS 578T breast | M19-MEL melanoma | MCF7 breast | MDA-MB-231 breast | MDA-MB-435 | MDA-N | MOLT-4 leukemia | NCI/ADR-RES ovarian | PC-3 prostate | SR leukemia | T-47D breast
> 100 µM: all other assays above

S=c1c2[nH]cnc2ncn1CCSC1=NC=NC2=NC=NC21 (stereo not drawn)
not listed: LXFL 529 NSCLC | RXF-631 renal
> 100 µM: all other assays above

O=c1[nH]c(=O)n(C2CC(O)C(CO)O2)cc1C(F)(C(F)(F)F)C(F)(F)F (stereo not drawn)
not listed: A549 NSCLC | HCC-2998 colon | HCT-116 colon | RXF-631 renal | BT-549 breast | DU-145 prostate | HS 578T breast | MCF7 breast | MDA-MB-231 breast | MDA-MB-435 | MDA-N | NCI/ADR-RES ovarian | PC-3 prostate | T-47D breast
> 100 µM: all other assays above
